Legend:
[1] = cited from earlier work
[2] = test system: EoE fibroblasts and esophageal epithelial cells; experiment: COMP expression in cells treated in vitro with recombinant TGFb1; format: cell-based, human; details: p<0.0001
Method: Primary esophageal fibroblasts from EoE patients were used. The fibroblast were treated in vitro with recombinant TGFb1. […] Biopsies were scored using a standardized histology score. […] COMP expression correlated with fibrosis (r=[…]), basal zone hyperplasia (r=0.59, p<0.0001), and eosinophilia (r=0.54, p<0.0001).

Molecule | tolerability / drug-related adverse events compared to placebo [1] | COMP expression induction [2]
CCc1ccc(CCOc2ccc(CC3SC(=O)NC3=O)cc2)nc1 (centres unmarked) [Pioglitazone, pioglitazone] | no major drug-related adverse events | –
TGFb1: recombinant TGFb1, the canonical pro-fibrotic molecule transforming growth factor-beta-1 | – | up to 6000 fold

Reference: patent US20220170944A1, “MATERIALS AND METHODS FOR IDENTIFYING AND TREATING EOSINOPHILIC DISORDERS” (The Regents of the University of California, priority 2019, published 2022)
